The record followed here is US20150306096A1, “8'-HYDROXY-DIHYDROERGOTAMINE COMPOUNDS AND COMPOSITIONS” (MAP Pharmaceuticals, Inc., priority 2012, published 2015).

Holding throughout (test): Radioligand competition binding and kinetics, CHO-K1 membranes
(In general: Loss of bound radioactivity is the signal in a displacement assay; it reports binding, not function.)

One assay addresses T1, human 5-HT1A receptor (Homo sapiens, UniProt P08908).
T1 construct: purchased Euroscreen; host or cells: CHO-K1
T1 sequence (P08908 1-422): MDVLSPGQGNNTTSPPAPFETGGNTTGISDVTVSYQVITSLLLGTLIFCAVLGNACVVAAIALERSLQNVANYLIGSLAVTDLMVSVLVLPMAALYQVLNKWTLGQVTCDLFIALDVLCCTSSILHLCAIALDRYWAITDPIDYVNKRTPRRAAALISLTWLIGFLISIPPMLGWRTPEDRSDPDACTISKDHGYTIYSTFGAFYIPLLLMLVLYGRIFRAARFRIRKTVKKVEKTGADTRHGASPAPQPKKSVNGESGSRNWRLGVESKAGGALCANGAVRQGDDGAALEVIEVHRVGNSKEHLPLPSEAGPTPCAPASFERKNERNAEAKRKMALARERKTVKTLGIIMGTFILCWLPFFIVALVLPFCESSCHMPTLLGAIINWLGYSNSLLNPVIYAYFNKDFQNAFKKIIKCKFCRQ
Conditions: 5-HT1A. The method, then:
(§1) For kinetics of radioligand competitive binding, serial dilutions were performed from master solution in 100% DMSO to obtain intermediate concentrations 200-fold higher than the concentrations to be tested. Each test sample was diluted 100-fold in the assay buffer and dispensed into the test plate.
Determination of the Kon constant. Radioligand association kinetics on each receptor were performed by adding in the wells of a 96 well plate 50 μL of radioligand and 50 μL of membrane extracts. The samples were incubated for the times reported in Table 3 below at a temperature optimized for each receptor and filtered over a filter plate. After washing the filters 5 times with 0.5 mL of ice-cold washing buffer, 50 μL of Microscint 20 (Packard) were added to the filters and the plates were incubated 15 min on an orbital shaker and then counted for 1 min/well. This allowed determination of the kobs for each radioligand. […] The different kobs were then plotted against the [radioligand] and the K. was calculated using the following equation: kon=(kobs−koff)[radioligand].
Determination of the Koff constant. […] The samples were incubated as reported in Table 4 below at a temperature optimized for each receptor until binding equilibrium was reached as determined by the association kinetics experiment. […] After washing the filters 5 times with 0.5 mL of ice-cold washing buffer, 50 μL of Microscint 20 (Packard) were added to the filters and the plates were incubated 15 min on an orbital shaker and then counted for 1 min/well. […]
(§2) Determination of IC50 and Ki constant for each test compound. […] After washing the filters 5 times with 0.5 mL of ice-cold washing buffer, 50 μL of Microscint 20 (Packard) were added to the filters and the plates were incubated 15 min on an orbital shaker and then counted for 1 min/well. […]
(§3) Determination of kon and koff constants for each test compound. Each compound was first assessed in a pilot experiment to evaluate its effect on the kinetic binding of each receptor-radioligand pair. […]

A further assay deals with T2, human 5-HT1D receptor (Homo sapiens, UniProt P28221).
T2 construct: purchased Euroscreen; host or cells: CHO-K1
Conditions: 5-HT1D. On the procedure:
as §1
5-HT1D Radioligand Binding Assay
Assay buffer: 50 mM Tris (pH 7.4), 4 mM CaCl2, 0.1% ascorbic acid
Washing buffer: 50 mM Tris (pH 7.4)
Membrane: recombinant CHO-K1-5-HT1D membranes thawed on ice and diluted in assay buffer (10 μg/well)
(§4) Ligand: 5-HT (Sigma, H-9523)
Radioligand: [^3H]-CT (Perkin Elmer, TRK1038, diluted in assay buffer for a final concentration of 0.5 nM) Filter plate: GF/B Unifilter plate (Perkin Elmer, 6005177) presoaked in 0.5% PEI for 2 hours at RT.
(§5) Determination of the Kon constant. Radioligand association kinetics on each receptor were performed by adding in the wells of a 96 well plate 50 μL of radioligand and 50 μL of membrane extracts. The samples were incubated for the times reported in Table 3 below at a temperature optimized for each receptor and filtered over a filter plate. After washing the filters 5 times with 0.5 mL of ice-cold washing buffer, 50 μL of Microscint 20 (Packard) were added to the filters and the plates were incubated 15 min on an orbital shaker and then counted for 1 min/well. This allowed determination of the kobs for each radioligand. Association kinetics were performed at 5 different radioligand concentrations optimized for each receptor (see Table 3 below) to determine 5 different kobs. The different kobs were then plotted against the [radioligand] and the K. was calculated using the following equation: kon=(kobs−koff)[radioligand].
(§6) Determination of the Koff constant. Radioligand dissociation kinetics on each receptor were performed by adding in the wells of a 96 well plate 45 μL of radioligand and 45 μL of membrane extracts. The samples were incubated as reported in Table 4 below at a temperature optimized for each receptor until binding equilibrium was reached as determined by the association kinetics experiment. Then, 100 μL of cold competitor (reference ligand) were added at a 200 fold excess (final concentration) for the times reported in Table 4 at the optimized temperature. The samples were then filtered over a filter plate. After washing the filters 5 times with 0.5 mL of ice-cold washing buffer, 50 μL of Microscint 20 (Packard) were added to the filters and the plates were incubated 15 min on an orbital shaker and then counted for 1 min/well. This allowed determination of the koff for each radioligand.
Determination of IC50 and Ki constant for each test compound. Radioligand competition binding on each receptor were performed by adding in the wells of a 96 well plate […] of test compound at increasing concentration as reported in Table 5 below, 25 μL of radioligand and 25 μL of membrane extracts. The samples were incubated for 60 min (or 4 hours for a second experiment on 5-HT2B receptors) at a temperature optimized for each receptor and then filtered over a filter plate. After washing the filters 5 times with 0.5 mL of ice-cold washing buffer, 50 μL of Microscint 20 (Packard) were added to the filters and the plates were incubated 15 min on an orbital shaker and then counted for 1 min/well. The test compounds were tested in duplicate at the nanomolar concentrations reported below in Table 5.
Determination of kon and koff constants for each test compound. Each compound was first assessed in a pilot experiment to evaluate its effect on the kinetic binding of each receptor-radioligand pair. These pilot experiments were performed at on compound concentration and were composed of 10 time-points measurements in duplicate (2, 5, 10, 20, 30, 45, 60, 90, 120 and 150 minutes).

Another assay addresses T3, human 5-HT2B receptor (Homo sapiens, UniProt P41595).
T3 construct: purchased Euroscreen; host or cells: CHO-K1
The conditions noted are these: 5-HT2B. On the procedure: as §1, §4, §5, §6, §2, §3

Structures are written as SMILES.

T3 sequence (P41595 whole entry): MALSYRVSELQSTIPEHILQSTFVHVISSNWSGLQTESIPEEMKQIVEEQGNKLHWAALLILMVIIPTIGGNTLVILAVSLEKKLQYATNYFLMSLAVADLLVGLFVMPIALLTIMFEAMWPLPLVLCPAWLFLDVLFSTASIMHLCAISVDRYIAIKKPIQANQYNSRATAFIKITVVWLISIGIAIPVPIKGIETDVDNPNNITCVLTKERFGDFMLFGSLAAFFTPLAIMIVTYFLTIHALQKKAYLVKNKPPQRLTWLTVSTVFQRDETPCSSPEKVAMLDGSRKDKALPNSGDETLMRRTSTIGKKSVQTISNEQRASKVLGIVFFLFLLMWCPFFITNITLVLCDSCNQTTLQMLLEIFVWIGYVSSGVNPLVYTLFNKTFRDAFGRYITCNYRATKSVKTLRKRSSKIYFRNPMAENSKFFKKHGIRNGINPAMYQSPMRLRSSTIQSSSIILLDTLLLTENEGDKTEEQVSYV
T2 sequence (P28221 whole entry): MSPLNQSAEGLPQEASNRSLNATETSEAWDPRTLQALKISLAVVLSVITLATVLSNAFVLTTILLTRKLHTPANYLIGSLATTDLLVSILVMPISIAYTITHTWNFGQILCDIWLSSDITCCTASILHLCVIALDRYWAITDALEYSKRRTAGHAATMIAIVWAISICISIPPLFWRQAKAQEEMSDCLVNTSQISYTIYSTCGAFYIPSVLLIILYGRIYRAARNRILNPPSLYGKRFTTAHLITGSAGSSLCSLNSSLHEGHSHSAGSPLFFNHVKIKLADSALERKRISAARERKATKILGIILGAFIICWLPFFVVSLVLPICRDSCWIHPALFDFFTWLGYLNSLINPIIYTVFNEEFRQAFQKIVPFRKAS

As to `CNS(=O)(=O)Cc1ccc2[nH]cc(CCN(C)C)c2c1` [Sumatriptan, sumatriptan], the “Avg Dissociation half-life” value turned out to be 65.4 min on human 5-HT1A receptor, 5.4 min on human 5-HT1D receptor and 22.2 min at human 5-HT2B receptor. The 50% inhibitory concentration (IC50) on human 5-HT2B receptor ([3H]-Mesulergine, read-out: IC50 from binding assay) was determined as 19.9 µM.

As usually defined, the IC50 is the concentration at which inhibition is half-maximal.
